The results in this text go back to patent publication US6682763B2, “Skin-beautifying agent, anti-aging agent for the skin, whitening agent and external agent for the skin” (The Nisshin Oil Mills, Ltd., priority 1999, dated 2004).

The subject of this data set is B-16 melanoma cells. To be noted: mouse, 5 days.

The structures appear in SMILES notation.

Protocol: If the culture system includes a substance capable of inhibiting the melanin-production during the proliferation, the darkening of the cells is suppressed, while the whitening thereof is promoted. Thus, the melanin-production-inhibitory function can be evaluated by comparing the degree of darkening of cells observed when any sample is not added with the degree of whitening of cells observed when the sample is added. In this connection, some of substances may be toxic to the B-16 melanoma cells. To evaluate this cytotoxicity, the cell-survival rate observed when a sample is not added is compared with that observed for the system free of any sample. The melanin-production-inhibitory function is evaluated using the cell-whitening degree and the cell-survival rate in combination.
Cytotoxicity Index=C/D <Formula 4>
In this respect, the term “cell-survival rate” herein used is defined by the following <Formula 5>:
Cell-Survival Rate(%)=(E/F)×100 <Formula 5>
E: Viable cell count observed for the system to which a sample is added.
F: Number of cells observed for the system free of any added test sample. […]
The rate of cell-survival can be calculated according to the aforementioned relation: <Formula 5>.

As to `OC[C@H]1O[C@@H](Oc2ccc(O)cc2)[C@H](O)[C@@H](O)[C@@H]1O` [arbutin], the “concentration at N.D. (rate of cell survival not more than 10%)” value is 500 ppm.
